Test results published in patent US11453666B2, “Autotaxin inhibitory compounds” (Cancer Research Technology Limited, priority 2015, dated 2022).

These compounds were tested against human recombinant ATX (Homo sapiens, UniProt Q13822) (assay: Autotaxin (ATX) activity Quanta Red assay). Conditions: read-out: Activity (ATX activity, Quanta Red assay; IC50).
Type: biochemical
Method in brief: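 Recombinant human ATX reaction stopped after 2 h with Quanta Red stop solution; fluorescence read at […]. Controls with DMSO, with and without ATX; IC50 in duplicate.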

IC50 [nM] | SMILES
16 | Cc1cnc2c(c1)nc(CCC(=O)N[C@@H](C)c1ccc(N[C@H]3CCNC3)cc1)n2Cc1ccc(OC(F)(F)F)cc1 [Example 189, 3-[6-Methyl-3-(4-trifluoromethoxy-benzyl)-3H-imidazo[4,5-b]pyridin-2-yl]-N-{(S)-1-[4-((S)-pyrrolidin-3-ylamino)-phenyl]-ethyl}-propionamide]
22 | O=C(CCc1nc2cccnc2n1Cc1ccc(F)c(F)c1)NC(CO)c1ccc(F)cc1 (stereo not drawn) [Example 50, 3-[3-(3,4-Difluoro-benzyl)-3H-imidazo[4,5-b]pyridin-2-yl]-N-[1-(4-fluoro-phenyl)-2-hydroxy-ethyl]-propionamide]
2 | C[C@H](NC(=O)CCc1nc2cccnc2n1Cc1ccc(OC(F)(F)F)cc1)c1ccc(N2CCCNCC2)cc1 [Example 170, N-[(S)-1-(4-[1,4]Diazepan-1-yl-phenyl)-ethyl]-3-[3-(4-trifluoromethoxy-benzyl)-3H-imidazo[4,5-b]pyridin-2-yl]-propionamide]
